According to patent EP1144368B1, “ACETYLENIC ALPHA-AMINO ACID-BASED SULFONAMIDE HYDROXAMIC ACID TACE INHIBITORS” (priority 1999, dated 2000):

molecular target: TACE (Homo sapiens, UniProt P78536); assay: TACE inhibition (fluorescent peptidyl substrate); assay type: biochemical; details: not given
Sequence (P78536 215-824): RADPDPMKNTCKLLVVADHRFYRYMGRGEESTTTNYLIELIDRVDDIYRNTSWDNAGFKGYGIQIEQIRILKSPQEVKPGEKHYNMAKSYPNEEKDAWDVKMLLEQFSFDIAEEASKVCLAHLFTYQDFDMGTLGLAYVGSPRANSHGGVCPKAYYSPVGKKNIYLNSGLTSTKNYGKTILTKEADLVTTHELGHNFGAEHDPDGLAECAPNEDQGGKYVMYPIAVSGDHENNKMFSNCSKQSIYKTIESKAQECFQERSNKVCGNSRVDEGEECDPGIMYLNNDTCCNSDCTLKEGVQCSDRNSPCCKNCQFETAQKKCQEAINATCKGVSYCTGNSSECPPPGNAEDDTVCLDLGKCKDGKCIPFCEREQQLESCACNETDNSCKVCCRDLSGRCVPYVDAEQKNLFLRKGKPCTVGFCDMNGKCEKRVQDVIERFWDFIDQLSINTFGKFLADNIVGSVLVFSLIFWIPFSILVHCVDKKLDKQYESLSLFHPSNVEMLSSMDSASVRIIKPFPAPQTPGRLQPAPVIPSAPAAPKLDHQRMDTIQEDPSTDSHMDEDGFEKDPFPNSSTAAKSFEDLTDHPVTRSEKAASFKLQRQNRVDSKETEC

In the case of `CC#CCOc1ccc(S(=O)(=O)N[C@H](CCCNC(=O)Oc2ccc(OC)cc2)C(=O)NO)cc1` [Example 372, 4-Methoxyphenyl (4R)-4-({[4-(but-2-ynyloxy)phenyl]sulfonyl}amino)-5-(hydroxyamino)-5-oxopentylcarbamate], the IC50 is reported as 8.4 nM.

same assay, conditions: In Vitro Inhibition of TACE, 1 uM; read-out: % Inhibition at 1 uM

Going from `CC#CCOc1ccc(S(=O)(=O)N[C@@H](CSCNC(C)=O)C(=O)NO)cc1` [Example 96] to `CC#CCOc1ccc(S(=O)(=O)N[C@@H](CC(N)=O)C(=O)NO)cc1` [Example 66], the inhibition at 1 µM rises from 22% to 45.6%.

First: CC#CCOc1ccc(S(=O)(=O)N[C@@H](COCc2ccccc2)C(=O)NO)cc1 [Example 97]
Second: CC#CCOc1ccc(S(=O)(=O)N[C@@H](Cc2ccccc2)C(=O)NO)cc1 [Example 94]
The inhibition at 1 µM of the first is higher: 67.5% for the first, 38.2% for the second.

Going from `CC#CCOc1ccc(S(=O)(=O)N[C@@H](CSCc2ccc(OC)cc2)C(=O)NO)cc1` [Example 74] to `CC#CCOc1ccc(S(=O)(=O)N[C@H](CSCc2ccc(OC)cc2)C(=O)NO)cc1` [Example 302], the inhibition at 1 µM falls from 73.8% to 3%.

First: CC#CCOc1ccc(S(=O)(=O)N[C@@H](Cc2ccc(O)cc2)C(=O)NO)cc1 [Example 102]
Second: CC#CCOc1ccc(S(=O)(=O)N[C@H](Cc2ccc(O)cc2)C(=O)NO)cc1 [Example 84]
The inhibition at 1 µM of the first is lower: 27.3% for the first, 101% for the second.

Going from `CC#CCOc1ccc(S(=O)(=O)N[C@H](C(=O)NO)C2CCCCC2)cc1` [Example 72] to `CC#CCOc1ccc(S(=O)(=O)N[C@@H](C(=O)NO)C2CCCCC2)cc1` [Example 78], the inhibition at 1 µM rises from 57.4% to 101%.

First: CC#CCOc1ccc(S(=O)(=O)N[C@H](CCCN)C(=O)NO)cc1 [Example 76]
Second: CC#CCOc1ccc(S(=O)(=O)N[C@@H](CCCCN)C(=O)NO)cc1 [Example 92]
The inhibition at 1 µM of the first is lower: 29.7% for the first, 102% for the second.

First: CC#CCOc1ccc(S(=O)(=O)N[C@H](CC2CCCCC2)C(=O)NO)cc1 [Example 77]
Second: CC#CCOc1ccc(S(=O)(=O)N[C@@H](CC2CCCCC2)C(=O)NO)cc1 [Example 71]
The inhibition at 1 µM of the first is higher: 105% for the first, 86.7% for the second.

Compared with `CC#CCOc1ccc(S(=O)(=O)N[C@@H](CCCNC(N)=NS(=O)(=O)c2ccc(C)cc2)C(=O)NO)cc1` [Example 65], `CC#CCOc1ccc(S(=O)(=O)N[C@@H](CCCNC(=N)N)C(=O)NO)cc1` [Example 64] is lower in inhibition at 1 µM: 102% for the first, 67.4% for the second.

Compared with `CC#CCOc1ccc(S(=O)(=O)N[C@@H](CC(=O)O)C(=O)NO)cc1` [Example 67], `CC#CCOc1ccc(S(=O)(=O)N[C@H](CC(=O)O)C(=O)NO)cc1` [Example 298] is lower in inhibition at 1 µM: 46.2% for the first, 40% for the second.

Going from `CC#CCOc1ccc(S(=O)(=O)N[C@@H](CC)C(=O)NO)cc1` [Example 63] to `CC#CCOc1ccc(S(=O)(=O)N[C@@H](CO)C(=O)NO)cc1` [Example 98], the inhibition at 1 µM falls from 47.6% to 2.5%.

First: CC#CCOc1ccc(S(=O)(=O)N[C@@H](CSC(C)(C)C)C(=O)NO)cc1 [Example 73]
Second: CC#CCOc1ccc(S(=O)(=O)N[C@H](CC(C)C)C(=O)NO)cc1 [Example 79]
The inhibition at 1 µM of the first is lower: 79% for the first, 107% for the second.

Compared with `CC#CCOc1ccc(S(=O)(=O)N2CCC[C@@H]2C(=O)NO)cc1` [Example 82], `CC#CCOc1ccc(S(=O)(=O)N2C[C@H](OCc3ccccc3)C[C@H]2C(=O)NO)cc1` [Example 88] is lower in inhibition at 1 µM: 98.4% for the first, 8.4% for the second.

Going from `CC#CCOc1ccc(S(=O)(=O)N[C@@H](Cc2cnc[nH]2)C(=O)NO)cc1` [Example 87] to `CC#CCOc1ccc(S(=O)(=O)N[C@@H](CCN)C(=O)NO)cc1` [Example 70], the inhibition at 1 µM falls from 47.8% to 21.1%.

Compared with `CC#CCOc1ccc(S(=O)(=O)N[C@H](CCSC)C(=O)NO)cc1` [Example 80], `CC#CCOc1ccc(S(=O)(=O)N[C@@H](CCCC)C(=O)NO)cc1` [Example 93] is lower in inhibition at 1 µM: 105% for the first, 61.7% for the second.

Compared with `CC#CCOc1ccc(S(=O)(=O)N[C@H](C(=O)NO)[C@@H](C)CC)cc1` [Example 89], `CC#CCOc1ccc(S(=O)(=O)N[C@@H](CC(C)C)C(=O)NO)cc1` [Example 90] is higher in inhibition at 1 µM: 56.8% for the first, 58.9% for the second.

Compared with `CC#CCOc1ccc(S(=O)(=O)N[C@@H](Cc2ccc(OCc3ccccc3)cc2)C(=O)NO)cc1` [Example 103], `CC#CCOc1ccc(S(=O)(=O)N[C@H](Cc2ccccc2)C(=O)NO)cc1` [Example 81] is higher in inhibition at 1 µM: 52.8% for the first, 106% for the second.

Compared with `CC#CCOc1ccc(S(=O)(=O)N[C@H](Cc2c[nH]c3ccccc23)C(=O)NO)cc1` [Example 83], `CC#CCOc1ccc(S(=O)(=O)N[C@@H](Cc2c[nH]c3ccccc23)C(=O)NO)cc1` [Example 101] is lower in inhibition at 1 µM: 105% for the first, 30.2% for the second.

Going from `CC#CCOc1ccc(S(=O)(=O)N[C@H](CC(N)=O)C(=O)NO)cc1` [Example 75] to `CC#CCOc1ccc(S(=O)(=O)N[C@@H](CCC(=O)O)C(=O)NO)cc1` [Example 86], the inhibition at 1 µM falls from 55.8% to 37.5%.

Compared with `CC#CCOc1ccc(S(=O)(=O)N[C@H](C(=O)NO)c2ccccc2)cc1` [Example 95], `CC#CCOc1ccc(S(=O)(=O)N[C@H](C(=O)NO)[C@@H](C)OCc2ccccc2)cc1` [Example 99] is lower in inhibition at 1 µM: 98.6% for the first, 28.5% for the second.

With `CC#CCOc1ccc(S(=O)(=O)N[C@@H](CC(=O)OC2CCCCC2)C(=O)NO)cc1` [Example 68] the inhibition at 1 µM was 70.4%.

same assay, conditions: Table 15: In Vitro Inhibition of TACE

Going from `CC#CCOc1ccc(S(=O)(=O)N[C@@H](CSC(C)(C)C)C(=O)NO)cc1` [Example 73] to `CC#CCOc1ccc(S(=O)(=O)N[C@H](CC(C)C)C(=O)NO)cc1` [Example 79], the IC50 falls from 451 ± 31 nM to 5.7 ± 2.5 nM (79-fold). The second is the more potent here.

With `CC#CCOc1ccc(S(=O)(=O)N[C@H](Cc2ccc(F)c(F)c2)C(=O)NO)cc1` [Example 315] the IC50 was 5.7 nM.

same assay, conditions: read-out: % Inhibition at 1 uM

Compared with `CC#CCOc1ccc(S(=O)(=O)NCCC(=O)NO)cc1` [Example 69], `CC#CCOc1ccc(S(=O)(=O)N[C@@H](C)C(=O)NO)cc1` [Example 62B, L-2-(4-But-2-ynyloxy-benzenesulfonylamino)-N-hydroxy-propionamide] is lower in inhibition at 1 µM: 48.5% for the first, 46.2% for the second.

First: CC#CCOc1ccc(S(=O)(=O)N[C@H](C(=O)NO)[C@@H](C)O)cc1 [Example 100]
Second: CC#CCOc1ccc(S(=O)(=O)N[C@H](C(=O)NO)C(C)C)cc1 [Example 104]
The inhibition at 1 µM of the first is lower: 15.4% for the first, 38.5% for the second.

test system: THP-1 cells; assay: THP-1 Soluble Protein Assay (LPS-stimulated; ELISA of TNF-a, TNF-R p75/80, TNF-R p55/60, IL-8); assay type: cell-based, human; details: Homo sapiens, THP-1, 3 µM; read-out: THP % Inhibition @ 3µM

`CC#CCOc1ccc(S(=O)(=O)N2C[C@H](CC(=O)N(C)C)SC(C)(C)[C@@H]2C(=O)NO)cc1` [Example 281, (3S,6S)-4-{[4-(2-Butynyloxy)phenyl]sulfonyl}-6-[2-(dimethylamino)-2-oxoethyl]-N-hydroxy-2,2-dimethyl-3-thiomorpholinecarboxamide] showed an inhibition at 3 µM of 76%.

same assay, conditions: Homo sapiens, THP-1, read-out: THP % inhibition @ 3 µM, 3 µM

Going from `CC#CCOc1ccc(S(=O)(=O)N(C)C(C(=O)NO)c2ccc(Cl)cc2)cc1` (stereo not drawn) [Example 212, 2-[{[4-(2-Butynyloxy)phenyl]sulfonyl}(methyl)amino]-2-(4-chlorophenyl)-N-hydroxyacetamide] to `CC#CCOc1ccc(S(=O)(=O)N(C)C(C(=O)NO)c2ccc(OCCN3CCNCC3)cc2)cc1` (stereo not drawn) [Example 186, 2-[{[4-(2-butynyloxy)phenyl]sulfonyl}(methyl)amino]-N-hydroxy-2-{4-[2-(1-piperazinyl)ethoxy]phenyl}acetamide], the inhibition at 3 µM rises from 86% to 93%.

In the case of `CC#CCOc1ccc(S(=O)(=O)N(CC)C(C(=O)NO)C(C)C)cc1` (stereo not drawn) [Example 108, 2-[(4-But-2-ynyloxy-benzenesulfonyl)-ethyl-amino]-N-hydroxy-3-methyl-butyramide], the inhibition at 3 µM is reported as 76%.
